According to the supplement of paper PMC8092582:
Counter-ions that a name gives are not always drawn. ± gives the standard deviation of the averaged measurements.

System: HeLa
Assay: cell viability (CellTiter-Glo) relative to median of lowest-dilution wells of all drugs (fraction); higher = more viable cells
Experimental: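 HeLa control and CRISPR DDX11 knockout cells were seeded in 384-well plates and incubated for 72 h with each of 64 […] drugs at six concentrations. Viability was read with CellTiter-Glo and normalised to the median of the lowest (6th) dilution wells of all drugs. Two biological replicates (BR1, BR2) are averaged; the concentration unit is not stated.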

[1] = drug concentration (unit not stated): 0.04, genotype: DDX11 knockout
[2] = drug concentration (unit not stated): 0.04, genotype: control (DDX11 wild type)
[3] = drug concentration (unit not stated): 0.12, genotype: DDX11 knockout
[4] = drug concentration (unit not stated): 0.12, genotype: control (DDX11 wild type)
[5] = drug concentration (unit not stated): 0.37, genotype: DDX11 knockout
[6] = drug concentration (unit not stated): 0.37, genotype: control (DDX11 wild type)
[7] = drug concentration (unit not stated): 1.11, genotype: DDX11 knockout
[8] = drug concentration (unit not stated): 1.11, genotype: control (DDX11 wild type)
[9] = drug concentration (unit not stated): 3.33, genotype: DDX11 knockout
[10] = drug concentration (unit not stated): 3.33, genotype: control (DDX11 wild type)
[11] = drug concentration (unit not stated): 10, genotype: DDX11 knockout
[12] = drug concentration (unit not stated): 10, genotype: control (DDX11 wild type)
[13] = drug concentration (unit not stated): 0.01, genotype: DDX11 knockout
[14] = drug concentration (unit not stated): 0.01, genotype: control (DDX11 wild type)

Row | Structure (SMILES) | cell viability [1] | cell viability [2] | cell viability [3] | cell viability [4] | cell viability [5] | cell viability [6] | cell viability [7] | cell viability [8] | cell viability [9] | cell viability [10] | cell viability [11] | cell viability [12] | cell viability [13] | cell viability [14]
1 | Nc1cc(C(F)(F)F)c(-c2cc(N3CCOCC3)nc(N3CCOCC3)n2)cn1 [Buparlisib (BKM-120)] | 1.01 ± 0.023 | 1.01 ± 0.039 | 0.963 ± 0.035 | 0.999 ± 0.046 | 0.881 ± 0.18 | 0.92 ± 0.2 | 0.625 ± 0.13 | 0.772 ± 0.3 | 0.248 ± 0.08 | 0.247 ± 0.11 | 0.045 ± 0.0024 | 0.0382 ± 0.001 | – | –
2 | O=C1c2c(O)ccc(O)c2C(=O)c2c(NCCNCCO)ccc(NCCNCCO)c21 [Mitoxantrone Hydrochloride] | 0.556 ± 0.33 | 0.88 ± 0.18 | 0.292 ± 0.31 | 0.858 ± 0.57 | 0.124 ± 0.13 | 0.583 ± 0.73 | 0.0246 ± 0.0088 | 0.312 ± 0.42 | – | – | – | – | 0.834 ± 0.17 | 0.952 ± 0.011
3 | C[C@@H](Nc1cc(F)cc(F)c1)c1cc(C(=O)N(C)C)cc2c(=O)cc(N3CCOCC3)oc12 [AZD8186] | 0.961 ± 0.075 | 1.01 ± 0.036 | 0.946 ± 0.098 | 1.01 ± 0.027 | 0.887 ± 0.049 | 0.952 ± 0.076 | 0.847 ± 0.075 | 0.92 ± 0.12 | 0.764 ± 0.082 | 0.887 ± 0.17 | 0.654 ± 0.13 | 0.908 ± 0.19 | – | –
4 | CC1(C)CCC(c2ccc(Cl)cc2)=C(CN2CCN(c3ccc(C(=O)NS(=O)(=O)c4ccc(N[C@H](CCN5CCOCC5)CSc5ccccc5)c(S(=O)(=O)C(F)(F)F)c4)cc3)CC2)C1 [ABT-263 (Navitoclax)] | 1.04 ± 0.045 | 0.983 ± 0.041 | 1 ± 0.021 | 1.02 ± 0.076 | 1.04 ± 0.014 | 1.022 ± 0.0018 | 0.976 ± 0.043 | 1.0084 ± 0.00083 | 1.02 ± 0.048 | 1.06 ± 0.058 | 0.841 ± 0.14 | 0.894 ± 0.22 | – | –
5 | COc1cc([C@@H]2c3cc4c(cc3[C@@H](O[C@@H]3O[C@@H]5CO[C@@H](C)O[C@H]5[C@H](O)[C@H]3O)[C@H]3COC(=O)[C@H]23)OCO4)cc(OC)c1O [Etoposide (VP-16)] | 0.993 ± 0.062 | 0.992 ± 0.036 | 0.913 ± 0.1 | 0.985 ± 0.015 | 0.737 ± 0.18 | 0.978 ± 0.18 | 0.477 ± 0.24 | 0.842 ± 0.39 | 0.165 ± 0.14 | 0.35 ± 0.33 | 0.0411 ± 0.033 | 0.0423 ± 0.033 | – | –
6 | Nc1nc2[nH]cc(CCc3ccc(C(=O)N[C@@H](CCC(=O)O)C(=O)O)cc3)c2c(=O)[nH]1 [Pemetrexed] | 0.983 ± 0.29 | 0.903 ± 0.41 | 0.911 ± 0.26 | 0.98 ± 0.53 | 0.781 ± 0.21 | 0.814 ± 0.4 | 0.741 ± 0.18 | 0.756 ± 0.34 | – | – | – | – | 1 ± 0.099 | 0.99 ± 0.11
7 | CO[C@H]1C[C@@H]2CC[C@@H](C)[C@@](O)(O2)C(=O)C(=O)N2CCCC[C@H]2C(=O)O[C@H]([C@H](C)C[C@@H]2CC[C@@H](O)[C@H](OC)C2)CC(=O)[C@H](C)/C=C(\C)[C@@H](O)[C@@H](OC)C(=O)[C@H](C)C[C@H](C)/C=C/C=C/C=C/1C [Rapamycin (Sirolimus)] | 0.755 ± 0.13 | 0.883 ± 0.33 | 0.786 ± 0.18 | 0.887 ± 0.33 | 0.706 ± 0.11 | 0.903 ± 0.33 | 0.718 ± 0.11 | 0.878 ± 0.35 | 0.67 ± 0.12 | 0.84 ± 0.35 | – | – | 0.764 ± 0.11 | 0.916 ± 0.33
8 | Cc1sc2c(c1C)C(c1ccc(Cl)cc1)=N[C@@H](CC(=O)OC(C)(C)C)c1nnc(C)n1-2 [(+)-JQ-1] | 1.02 ± 0.059 | 0.977 ± 0.047 | 0.93 ± 0.14 | 0.962 ± 0.17 | 0.849 ± 0.19 | 0.98 ± 0.49 | 0.671 ± 0.033 | 0.827 ± 0.26 | 0.5507 ± 0.0013 | 0.757 ± 0.2 | 0.5098 ± 0.0035 | 0.637 ± 0.18 | – | –
